Source: patent US20120129179A1, “SCN5A SPLICING FACTORS AND SPLICE VARIANTS FOR USE IN DIAGNOSTIC AND PROGNOSTIC METHODS” (THE BOARD OF TRUSTEES OF THE UNIVERSITY OF ILLINOIS, priority 2009, published 2012)

Assays:
RBM25 [1] = target: RBM25 (Homo sapiens, UniProt P49756); assay: Gel mobility shift assay; format: binding; conditions: 0.2 nM RNA, variable amounts of protein, 30 min at 4° C.
Procedure: (§1) Gel mobility shift assays: The biotinylated wild-type ([…]) and mutant ([…]) RNA substrates (SEQ ID NOs: 32 and 33, respectively) were synthesized by Invitrogen. Binding of biotinylated RNA to RBM25 was achieved by incubating 0.2 nM RNA and variable amounts of protein for 30 min at 4° C. in 20 μL of binding buffer (10 mM Tris-HCl, 10 mM HEPES, 100 mM NaCl, 0.1% Triton X-100, 2 mM MgCl2, 1.5 mM dithiothreitol (DTT) pH 7.5, 7% glycerol). For the competition assays, a molar excess of unlabeled competitor RNAs at various fold levels was added to the pre-incubated reaction mixture. Samples were fractionated in a native 5% polyacrylamide gel, transferred to Hybond-N+nylon membrane (Amersham Biosciences), and detected with a LightShift chemiluminescent electrophoretic mobility shift assay kit (Pierce) by following the manufacturer's protocol.
(§2) Gel mobility shift assays were performed as described previously with modification (Shang et al., Am. J. Physiol. Cell. Physiol., 292:C886-95, 2007, the disclosure of which is incorporated herein by reference in its entirety.). The biotinylated wild-type ([…]) and mutant ([…]) RNA substrates (SEQ ID NOs: 32 and 33, respectively) were synthesized. Binding of biotinylated RNA to RBM25 was achieved by incubating 0.2 nM RNA and variable amounts of protein for 30 min at 4° C. in 20 μL binding buffer. […]

RBM25 [2] = assay: Western blot of RBM25 in Jurkat cells; format: cell-based, human; conditions: Ang II 100 nmol/L, vs control group
Excerpt: (§3) Western blot analysis: The Mini-PROTEAN® Tetra Electrophoresis System from BioRad was used for Western blot analysis. Anti-Nav1.5 antibody, recognizing all channel variants, was provided by Dr. Peter Mohler (University of Iowa, Iowa City, Iowa). Anti-RBM25 antibody was provided by Dr. Huang (Dana-Farber Cancer Institute, Harvard, Boston, Mass.). Anti-PERK and hLuc7A antibodies were purchased from R&D Systems (Minneapolis, Minn.) and Millipore, (Billerica, Mass.).
(§4) The upregulation of splicing factors RBM25 and hLuc7A in Jurkat cells was further confirmed by Western blot. The Jurkat cells were divided into three experiment groups: normoxia, hypoxia-treated (1% O2), and Ang II-treated (100 nmol/L). The expressions of RBM25 and hLuc7A were analyzed by Western blot at three time points (12 h, 24 h, and 48 h) for hypoxia-treated group and at four time points (24 h, 48 h, 72 h, and 96 h) for Ang II-treated group. […] The density of hLuc7A was increased by 242.3±9.5%, 236.1±8.4% and 268.8±9.8% in hypoxia-treated group at time points 12 h, 24 h and 48 h, respectively, and was increased by 256.3±9.1%, 246.5±8.6%, 279.7±9.3% and 283.6±9.9% in Ang II-treated group at time points 24 h, 48 h, 72 h and 96 h, respectively (p<0.05).

RBM25 [3] = assay: Real-time RT-PCR of RBM25 mRNA in Jurkat cells and H9 hESC-cardiomyocytes; format: cell-based, human; conditions: Ang II-treated (100 nmol/L)
Procedure: (§5) Cell culture assays: Jurkat T cell clones E6.1 (ATCC, Manassas, Va.) were cultured at 37° C. and 5% CO2 in RPMI 1640 medium supplemented with 10% heat inactivated fetal calf serum, 4 mM glutamine, 75 units/mL streptomycin and 100 units/mL penicillin. WA09 (H9) human undifferentiated ESCs were obtained through the National Stem Cell Bank and maintained on irradiated mouse embryonic fibroblasts at 37° C. with 5% CO2. The culture medium consisted of DMEM/F12 (Invitrogen, Carlsbad, Calif.) supplemented with 15% knockout serum, 1% non-essential amino acids, 1 mmol/L L-glutamine, 0.1 mmol/L β-mercaptoethanol, and basic fibroblast growth factor of 20 ng/mL.
(§6) Real-Time PCR quantification: Total RNA was isolated from cultured cells using the Qiagen RNeasy Mini Kit (Valencia, Calif.). Total RNA from human ventricles was isolated using the RNeasy Lipid Tissue Mini Kit (Qiagen). Reverse transcription was carried out at 42° C. for 1 h with Powerscript reverse transcriptase (Roche). β-Actin was used as a reference when making quantitative comparison.
(§7) Because AngII and hypoxia are common in heart failure, we investigated whether these two conditions could influence RBM25 and hLuc7A levels. […] The Jurkat cells and H9 hESC-CMs were divided into three experiment groups: normoxia, hypoxia-treated (1% O2), and Ang II-treated (100 nmol/L). […]

SCN5A variant E28D = assay: RT-PCR of SCN5A variant E28D; format: cell-based, human; conditions: Ang II treatment
Procedure: as §6
(§8) Changes in hLuc7A and RBM25 correlated with SCN5A E28C and E28D variant abundances. Under hypoxia, the expression of SCN5A variants E28C and E28D were increased by 373.5±5.7% and 636.2±7.6%, respectively (p<0.05), while the expressions of the full length SCN5A transcript was decreased by 64.6±4.9% (p<0.05). With Ang II treatment, the expressions of the variants were increased by 291.4±5.2% and 433.7±6.5% for E28C and E28D, respectively (p<0.05), while the expression of the full length SCN5A transcipt was decreased by 78.9±5.4% (p<0.05).
(§9) The siRNA knockdown efficiency was estimated by both RT-PCR and Western blot and was not less than 50%. The expressions of SCN5A and the variants E28C and E28D were measured by RT-PCR in all experiment groups at time points of maximal siRNA effect.

PERK [4] = assay: Western blot of PERK in Jurkat cells; format: cell-based, human; conditions: Ang II-treated, vs control group
Excerpt: as §3
(§10) Hypoxia and AngII were used to increase abnormal SCN5A splicing. The expressions of PERK and sXBP1 were measured by RT-PCR. […] To test if this upregulation of one arm of the UPR was mediated by SCN5A mRNA variants, exogenous E28C and E28D were introduced. The Jurkat cells were divided into four experiment groups: normal control, empty vector control, variant E28C overexpressioned cells, and variant E28D overexpressioned cells. The expression of PERK was measures by RT-PCR in each group at the time point 48 h. […] The upregulation of PERK in Jurkat cells was further confirmed by Western blot.

PERK [5] = assay: RT-PCR of PERK expression; format: cell-based, human; conditions: Ang II-treated, 48 h
Procedure: as §6, §10

SCN5A variant E28C = assay: RT-PCR of SCN5A variant E28C; format: cell-based, human; conditions: Ang II treatment
Procedure: as §6, §8, §9

hLuc7A [6] = assay: Western blot of hLuc7A in Jurkat cells; format: cell-based, human; conditions: Ang II 100 nmol/L, vs control group
Excerpt: as §3, §4

hLuc7A [7] = assay: Real-time RT-PCR of hLuc7A mRNA in Jurkat cells and H9 hESC-cardiomyocytes; format: cell-based, human; conditions: Ang II-treated (100 nmol/L)
Procedure: as §5, §6, §7

sXBP1 = assay: RT-PCR of sXBP1 expression; format: cell-based, human; conditions: Ang II-treated
Procedure: as §6, §10

[8] = tested on: full length SCN5A transcript; assay: RT-PCR of full length SCN5A transcript; format: cell-based, human; conditions: Ang II treatment
Procedure: as §6, §8
Hypoxia and AngII were used to increase abnormal SCN5A splicing. The expressions of PERK and sXBP1 were measured by RT-PCR. […] To test if this upregulation of one arm of the UPR was mediated by SCN5A mRNA variants, exogenous E28C and E28D were introduced. The Jurkat cells were divided into four experiment groups: normal control, empty vector control, variant E28C overexpressioned cells, and variant E28D overexpressioned cells. […]

[9] = tested on: major UPR components (PERK, calnexin, CHOP); assay: Induction of major UPR components in hESC-CMs; format: cell-based, human; conditions: 100 nmol/L Ang II
Excerpt: The correlation of expression changes among PERK, major human embryonic stem cell-derived cardiomyocytes (hESC-CMs). […] E28C and E28D constructs were transduced to overexpress the truncated proteins.
Finally, downregualtion of PERK prevented the loss of full-length SCN5A mRNA abundance with these stimuli.

RBM25 [10] = target: T1, RBM25 (UniProt P49756 SEQ:1-843); assay: EMSA; concentration-dependent; 0.2 nM RNA, 10 mM Tris-HCl, 10 mM HEPES, 100 mM NaCl, 2 mM MgCl2, pH 7.5, 4 C; unlabeled competitor assay also run; conditions: label: biotin
T1 sequence (P49756 whole entry): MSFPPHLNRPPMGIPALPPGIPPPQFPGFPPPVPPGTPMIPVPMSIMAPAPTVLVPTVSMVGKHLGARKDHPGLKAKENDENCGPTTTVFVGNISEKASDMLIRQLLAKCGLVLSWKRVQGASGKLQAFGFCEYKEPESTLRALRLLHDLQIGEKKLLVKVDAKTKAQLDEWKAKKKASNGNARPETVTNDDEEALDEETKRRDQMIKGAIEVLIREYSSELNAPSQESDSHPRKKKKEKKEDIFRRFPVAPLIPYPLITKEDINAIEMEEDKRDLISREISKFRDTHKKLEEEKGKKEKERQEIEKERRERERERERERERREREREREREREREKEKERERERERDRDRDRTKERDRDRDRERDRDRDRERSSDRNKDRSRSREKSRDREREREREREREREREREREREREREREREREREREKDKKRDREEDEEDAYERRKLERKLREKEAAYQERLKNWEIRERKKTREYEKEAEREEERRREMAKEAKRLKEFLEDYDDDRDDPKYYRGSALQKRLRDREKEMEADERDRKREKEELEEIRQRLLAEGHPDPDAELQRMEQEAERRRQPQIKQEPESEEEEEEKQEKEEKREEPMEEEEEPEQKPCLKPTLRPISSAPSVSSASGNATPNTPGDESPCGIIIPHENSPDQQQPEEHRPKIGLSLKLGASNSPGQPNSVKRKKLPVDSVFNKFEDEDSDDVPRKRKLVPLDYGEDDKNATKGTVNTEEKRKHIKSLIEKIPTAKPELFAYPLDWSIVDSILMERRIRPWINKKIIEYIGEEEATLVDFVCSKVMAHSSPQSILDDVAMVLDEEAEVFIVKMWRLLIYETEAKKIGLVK
Procedure: as §1, with “MgCl₂,” for “MgCl2,”
as §2

RBM25 [11] = target: T1, RBM25; assay: EMSA; mutated canonical site; 0.2 nM RNA, 100 mM NaCl, 2 mM MgCl2, pH 7.5, 4 C; conditions: label: biotin
Procedure: as §1, with “MgCl₂,” for “MgCl2,”
as §2

Chain of RBM25 (Homo sapiens, UniProt P49756) (P49756 whole entry): as above

CAGCAGGCGGGCAGCGGCCU (RNA, backbone not given here; biotinylated RNA) [wild-type RNA substrate]
binding of RBM25 to biotinylated RNA substrate (RBM25 [1]): bound the wild-type SCN5A sequence in a concentration-dependent manner

CAGCAGGUUAGAGGCGGCCU (RNA, backbone not given here; biotinylated RNA) [mutant RNA substrate]
binding of RBM25 to biotinylated RNA substrate (RBM25 [1]): inability of RBM25 to bind

angiotensin II (DRVYIHPF; Angiotensin-2; UniProt P01019 25-32, looked up) [Ang II, angiotensin II, used at 100 nmol/L to treat Jurkat cells and hESC-CMs]
density of RBM25 increased by (RBM25 [2]; 24 h): 209.5±8.8%
density of RBM25 increased by (RBM25 [2]; 48 h): 212.6±9.7%
density of RBM25 increased by (RBM25 [2]; 72 h): 181.3±8.3%
density of RBM25 increased by (RBM25 [2]; 96 h): 198.8±8.7%
expression of RBM25 increased by (RBM25 [3]; ES cells (H9 hESC-CMs)): 42.1±4.7%
expression of RBM25 increased by (RBM25 [3]; Jurkat cells): 50.8±4.9%
expression of SCN5A variant E28D increased by (SCN5A variant E28D): 433.7±6.5%
density of PERK increased by (PERK [4]): 383.2±10.7%
expression of PERK increased by (PERK [5]): 14.2±0.6 fold
expression of SCN5A variant E28C increased by (SCN5A variant E28C): 291.4±5.2%
density of hLuc7A increased by (hLuc7A [6]; 24 h): 256.3±9.1%
density of hLuc7A increased by (hLuc7A [6]; 48 h): 246.5±8.6%
density of hLuc7A increased by (hLuc7A [6]; 72 h): 279.7±9.3%
density of hLuc7A increased by (hLuc7A [6]; 96 h): 283.6±9.9%
expression of hLuc7A increased by (hLuc7A [7]; ES cells (H9 hESC-CMs)): 181.2±6.7%
expression of hLuc7A increased by (hLuc7A [7]; Jurkat cells): 187.3±7.9%
expression upregulation of sXBP1 (sXBP1): no expression upregulation
expression of the full length SCN5A transcript decreased by [8]: 78.9±5.4%
induction of major UPR components (PERK, calnexin, CHOP) [9]: could induce major UPR components

B1: SCN5A exon 28 wild-type RNA (ssRNA)
RNA: CAGCAGGCGGGCAGCGGCCU
binding result (RBM25 [10]): binds

B2: SCN5A exon 28 mutant RNA (ssRNA)
RNA: CAGCAGGUUAGAGGCGGCCU
binding result (RBM25 [11]): no binding
